Data taken from article PMC9098913, “In vitro reconstitution of Escherichia coli divisome activation” (Nature Communications, 2022).

Test: Diffusion coefficient of His-tagged FtsAs and His-SUMO on Tris-NTA membranes (FRAP)
Method: To study colocalization of His-tagged variants of FtsA, 0.5–1 µM of Cy5 labelled His-tagged FtsAs were added to the chamber, incubated for 20 min and washed 6x with reaction buffer. […] To control the density of membrane-bound FtsA, SUVs without and with Tris-NTA lipids were mixed to obtain the respective Tris-NTA concentrations. To perform FRET/FRAP experiments, equimolar concentrations of Cy3 and Cy5 labelled His-tagged FtsAs (total 0.5–1 µM) or His-SUMO-Cys were added to a chamber and treated as above. […] FRAP experiments were performed as described before.
Bleaching the acceptor dye leads to an increase in the donor intensity, which can be used to quantify the Foerster Resonance energy transfer (FRET)[48]. FRET efficiency was quantified with E%=Ipost/Ipost+Ipre⋅100 , where Ipost is the intensity of the […] and Ipre is the […]. […] To extract the contribution of both processes, we adjusted a routine recently published by Gerganova et al.[33]. In short, the code provides the contribution of both modes of recovery by analysing the shape of the fluorescence recovery profile. […] Contribution of diffusion leads to a change of the slope of the outer borders of the bleached region (S4h right). Thus, by measuring the change of the slope of the border recovery, diffusion and simple on/off binding can be distinguished. We developed “FRAPdiff”, a graphical user interface, which uses the original fit routine by David Rutkowski. It can be used directly on.tiff movies with annotated bleach regions as ImageJ ROIs. In addition, we added optional bleach correction, user selectable projection axis (x or y), and optional mirroring of the recovery profiles, if bleaching was not symmetric. The original fit routine for estimating the recovery and diffusion dynamics can be found at https://github.com/davidmrutkowski/1DReflectingDiffusion. FRAPdiff is available at 10.5281/zenodo.6400639[49] under the GPLv3 open-source license.

Substance: FtsA-His6: FtsA WT (1-405) with amphipathic helix replaced by C-terminal His-tag
- Diffusion Coefficient (0.1% Tris NTA, + FtsZ, mean (n: WT 2, R286W 3)): 0.07 µm2/s
- Diffusion Coefficient (0.1% Tris NTA, + FtsZ, replicate Exp1): 0.14 µm2/s
- Diffusion Coefficient (0.1% Tris NTA, + FtsZ, replicate Exp2): 0.000245 µm2/s
- Diffusion Coefficient (0.1% Tris NTA, without FtsZ, replicate Exp1): 0.35 µm2/s
- Diffusion Coefficient (0.1% Tris NTA, without FtsZ, replicate Exp2): 0.29 µm2/s
- Diffusion Coefficient (0.4% Tris NTA, + FtsZ, mean (n: WT 2, R286W 3)): 0.0146 µm2/s
- Diffusion Coefficient (0.4% Tris NTA, + FtsZ, replicate Exp1): 0.0175 µm2/s
- Diffusion Coefficient (0.4% Tris NTA, + FtsZ, replicate Exp2): 0.0117 µm2/s
- Diffusion Coefficient (0.4% Tris NTA, without FtsZ, replicate Exp1): 0.11 µm2/s
- Diffusion Coefficient (0.4% Tris NTA, without FtsZ, replicate Exp2): 0.10 µm2/s
- Diffusion Coefficient (0.6% Tris NTA, + FtsZ, mean (n: WT 5, R286W 5)): 0.0113 µm2/s
- Diffusion Coefficient (0.6% Tris NTA, + FtsZ, replicate Exp1): 0.02 µm2/s
- Diffusion Coefficient (0.6% Tris NTA, + FtsZ, replicate Exp2): 0.01 µm2/s
- Diffusion Coefficient (0.6% Tris NTA, + FtsZ, replicate Exp3): 0.0152 µm2/s
- Diffusion Coefficient (0.6% Tris NTA, + FtsZ, replicate Exp4): 0.00625 µm2/s
- Diffusion Coefficient (0.6% Tris NTA, + FtsZ, replicate Exp5): 0.00411 µm2/s
- Diffusion Coefficient (0.6% Tris NTA, without FtsZ, mean (n: WT 4, R286W 5, SUMO 4)): 0.03 µm2/s
- Diffusion Coefficient (0.6% Tris NTA, without FtsZ, replicate Exp1): 0.0256 µm2/s
- Diffusion Coefficient (0.6% Tris NTA, without FtsZ, replicate Exp2): 0.00783 µm2/s
- Diffusion Coefficient (0.6% Tris NTA, without FtsZ, replicate Exp3): 0.0422 µm2/s
- Diffusion Coefficient (0.6% Tris NTA, without FtsZ, replicate Exp4): 0.046 µm2/s
- Diffusion Coefficient (0.8% Tris NTA, + FtsZ, mean): 0.012 µm2/s
- Diffusion Coefficient (0.8% Tris NTA, + FtsZ, replicate Exp1): 0.00842 µm2/s
- Diffusion Coefficient (0.8% Tris NTA, + FtsZ, replicate Exp2): 0.00437 µm2/s
- Diffusion Coefficient (0.8% Tris NTA, + FtsZ, replicate Exp3): 0.00795 µm2/s
- Diffusion Coefficient (0.8% Tris NTA, + FtsZ, replicate Exp4): 0.03 µm2/s
- Diffusion Coefficient (0.8% Tris NTA, + FtsZ, replicate Exp5): 0.00835 µm2/s
- Diffusion Coefficient (0.8% Tris NTA, without FtsZ, mean): 0.0135 µm2/s
- Diffusion Coefficient (0.8% Tris NTA, without FtsZ, replicate Exp1): 0.0179 µm2/s
- Diffusion Coefficient (0.8% Tris NTA, without FtsZ, replicate Exp3): 8.35e-15 µm2/s
- Diffusion Coefficient (0.8% Tris NTA, without FtsZ, replicate Exp4): 0.0124 µm2/s
- Diffusion Coefficient (0.8% Tris NTA, without FtsZ, replicate Exp5): 0.0374 µm2/s
- Diffusion Coefficient (1% Tris NTA, + FtsZ, mean): 0.02 µm2/s
- Diffusion Coefficient (1% Tris NTA, + FtsZ, replicate Exp1): 0.0115 µm2/s
- Diffusion Coefficient (1% Tris NTA, + FtsZ, replicate Exp2): 0.00322 µm2/s
- Diffusion Coefficient (1% Tris NTA, + FtsZ, replicate Exp3): 0.00542 µm2/s
- Diffusion Coefficient (1% Tris NTA, + FtsZ, replicate Exp4): 0.00574 µm2/s
- Diffusion Coefficient (1% Tris NTA, + FtsZ, replicate Exp5): 0.07 µm2/s
- Diffusion Coefficient (1% Tris NTA, + FtsZ, replicate Exp6): 0.0435 µm2/s
- Diffusion Coefficient (1% Tris NTA, + FtsZ, replicate Exp7): 0.000437 µm2/s
- Diffusion Coefficient (1% Tris NTA, without FtsZ, mean): 0.0254 µm2/s
- Diffusion Coefficient (1% Tris NTA, without FtsZ, replicate Exp1): 0.0438 µm2/s
- Diffusion Coefficient (1% Tris NTA, without FtsZ, replicate Exp2): 0.000108 µm2/s
- Diffusion Coefficient (1% Tris NTA, without FtsZ, replicate Exp3): 6.32e-6 µm2/s
- Diffusion Coefficient (1% Tris NTA, without FtsZ, replicate Exp4): 0.06 µm2/s
- Diffusion Coefficient (Tris 0.10 %, + FtsZ): 0.07 µm2/s
- Diffusion Coefficient (Tris 0.10 %, without FtsZ): 0.32 µm2/s
- Diffusion Coefficient (Tris 0.40 %, + FtsZ): 0.0146 µm2/s
- Diffusion Coefficient (Tris 0.40 %, without FtsZ): 0.11 µm2/s
- Diffusion Coefficient (Tris 0.60 %, + FtsZ): 0.0113 µm2/s
- Diffusion Coefficient (Tris 0.60 %, without FtsZ): 0.03 µm2/s
- Diffusion Coefficient (Tris 0.80 %, + FtsZ): 0.012 µm2/s
- Diffusion Coefficient (Tris 0.80 %, without FtsZ): 0.0135 µm2/s
- Diffusion Coefficient (Tris 1.00 %, + FtsZ): 0.02 µm2/s
- Diffusion Coefficient (Tris 1.00 %, without FtsZ): 0.0254 µm2/s
- Diffusion Coefficient (Tris 2.00 %, + FtsZ): 0.000263 µm2/s
- Diffusion Coefficient (Tris 2.00 %, without FtsZ): 0.00604 µm2/s
- Diffusion Coefficient ([…] Tris NTA, + FtsZ, mean (n: WT 2, R286W 3)): 0.03 µm2/s
- Diffusion Coefficient ([…] Tris NTA, + FtsZ, replicate Exp1): 0.05 µm2/s
- Diffusion Coefficient ([…] Tris NTA, + FtsZ, replicate Exp2): 0.0108 µm2/s
- Diffusion Coefficient ([…] Tris NTA, without FtsZ, replicate Exp1): 0.11 µm2/s
- Diffusion Coefficient ([…] Tris NTA, without FtsZ, replicate Exp2): 0.14 µm2/s
- Diffusion Coefficient ([…] Tris-NTA, + N (FtsNcyto), mean): 1.72E-05 µm2/s
- Diffusion Coefficient ([…] Tris-NTA, + N/Z, Exp. 1): 1.69E-05 µm2/s
- Diffusion Coefficient ([…] Tris-NTA, + N/Z, Exp. 2): 1.87E-06 µm2/s
- Diffusion Coefficient ([…] Tris-NTA, + N/Z, Exp. 3): 5.64E-12 µm2/s
- Diffusion Coefficient ([…] Tris-NTA, + N/Z, mean): 6.26E-06 µm2/s
- Diffusion Coefficient ([…] Tris-NTA, + N, Exp. 1): 1.23E-05 µm2/s
- Diffusion Coefficient ([…] Tris-NTA, + N, Exp. 2): 2.69E-05 µm2/s
- Diffusion Coefficient ([…] Tris-NTA, + N, Exp. 3): 1.23E-05 µm2/s
- Diffusion Coefficient ([…] Tris-NTA, + Z (FtsZ), mean): 1.67E-03 µm2/s
- Diffusion Coefficient ([…] Tris-NTA, + Z, Exp. 1): 3.64E-05 µm2/s
- Diffusion Coefficient ([…] Tris-NTA, + Z, Exp. 2): 4.36E-03 µm2/s
- Diffusion Coefficient ([…] Tris-NTA, + Z, Exp. 3): 1.74E-03 µm2/s
- Diffusion Coefficient ([…] Tris-NTA, + Z, Exp. 4): 5.51E-04 µm2/s
- Diffusion Coefficient ([…] Tris-NTA, alone, Exp. 1): 1.17E-02 µm2/s
- Diffusion Coefficient ([…] Tris-NTA, alone, Exp. 2): 2.57E-05 µm2/s
- Diffusion Coefficient ([…] Tris-NTA, alone, Exp. 3): 3.15E-03 µm2/s
- Diffusion Coefficient ([…] Tris-NTA, alone, Exp. 4): 7.92E-04 µm2/s
- Diffusion Coefficient ([…] Tris-NTA, alone, mean): 3.92E-03 µm2/s
